Laboratory results as given in ChEMBL document CHEMBL2331498, “Mycoleptodiscins A and B, cytotoxic alkaloids from the endophytic fungus Mycoleptodiscus sp. F0194” (J Nat Prod, 2013).
pIC50: −log10 of the molar value.

Key:
PC-3 = assay: Cytotoxicity against human PC3 cells after 96 hrs by CellTiter-Glo assay; assay type: functional, cell-based; conditions: PC-3, 96 h
[1] = Cytotoxicity against human H460 cells after 96 hrs by CellTiter-Glo assay; assay type: functional, cell-based; conditions: NCI-H460, 96 h
[2] = Cytotoxicity against human H522-T1 cells after 96 hrs by CellTiter-Glo assay; assay type: functional, cell-based; conditions: H522-T1, 96 h
A2058 = assay: Cytotoxicity against human A2058 cells after 96 hrs by CellTiter-Glo assay; assay type: functional, cell-based; conditions: A2058, 96 h
IMR-90 = assay: Cytotoxicity against human IMR90 cells after 96 hrs by CellTiter-Glo assay; assay type: cell-based; conditions: IMR-90, 96 h

Row | SMILES | pIC50 (PC-3) | pIC50 [1] | pIC50 [2] | pIC50 (A2058) | pIC50 (IMR-90)
1 | CC[C@]1(O)C[C@@H]2CN(CCc3c([nH]c4ccccc34)[C@@](C(=O)OC)(c3cc4c(cc3OC)N(C)[C@H]3[C@@](O)(C(=O)OC)[C@H](OC(C)=O)[C@]5(CC)C=CCN6CC[C@]43[C@@H]65)C2)C1 [VINBLASTINE] | 8.30 | 8.70 | 8.05 | – | –
2 | CC1(C)CCC[C@@]2(C)C1CC[C@@]1(C)C3=CC(=O)C(=O)c4[nH]cc(c43)C[C@@]12O (some centres undefined) [MYCOLEPTODISCIN B] | 6.22 | 6.18 | 6.20 | 6.11 | 6.39
3 | N#CC(=O)C#N [CARBONYL CYANIDE] | – | – | – | – | 5.30
